The experiment deals with BTK (Homo sapiens (Human), UniProt Q06187). Description: In vitro BTK kinase assay: BTK-POLYGAT-LS ASSAY. In kind it is biochemical. The following applies: read-out: IC50 (10 uM ATP), polyGAT 100 nM, BTK 0.25 nM.

pIC50: −log10 of the molar value. Some results are limits rather than exact numbers.

Chain of BTK (Q06187 whole entry): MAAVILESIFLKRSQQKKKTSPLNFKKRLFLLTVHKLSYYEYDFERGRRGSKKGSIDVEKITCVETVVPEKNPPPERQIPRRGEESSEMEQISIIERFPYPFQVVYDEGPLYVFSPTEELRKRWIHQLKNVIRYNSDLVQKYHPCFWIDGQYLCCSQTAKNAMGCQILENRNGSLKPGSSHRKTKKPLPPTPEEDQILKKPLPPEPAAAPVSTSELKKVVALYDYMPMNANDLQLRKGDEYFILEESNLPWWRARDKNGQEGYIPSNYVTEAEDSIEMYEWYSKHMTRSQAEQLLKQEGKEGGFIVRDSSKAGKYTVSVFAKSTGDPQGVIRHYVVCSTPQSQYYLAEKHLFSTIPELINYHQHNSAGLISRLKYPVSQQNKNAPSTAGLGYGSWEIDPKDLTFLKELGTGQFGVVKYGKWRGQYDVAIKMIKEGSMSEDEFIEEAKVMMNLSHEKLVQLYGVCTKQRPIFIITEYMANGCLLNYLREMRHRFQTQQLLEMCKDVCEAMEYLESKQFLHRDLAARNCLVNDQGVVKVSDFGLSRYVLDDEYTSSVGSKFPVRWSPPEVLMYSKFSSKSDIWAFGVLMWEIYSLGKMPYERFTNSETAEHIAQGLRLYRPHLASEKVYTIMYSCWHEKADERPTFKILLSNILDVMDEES

In general, pIC50 refers to the negative decadic logarithm of the IC50, by convention in mol/L. As to “1-(3-(1-(methylsulfonyl)-4-(7H-pyrrolo[2,3-d]pyrimidin-4-yl)piperazin-2-yl)phenyl)-3-phenylurea [compound 128]”, the pIC50 was less than 5.00.
